Read-outs that look alike come from different tables or passages of the source.
Columns and labels:
[1] = target: c-Kit (Homo sapiens (Human), UniProt P10721); assay: Inhibition of c-Kit kinase activity (HTRF KinEASE-TK); type: biochemical; conditions: biochemical, HTRF KinEASE-TK
Outline: (§1)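 Human kinases were preincubated 1 h at rt with a 22-point 1:2 compound titration, then run 120 min at rt with biotinylated TK peptide and ATP (2× mix: c-Kit 16 μM, PDGFRα 1 μM, PDGFRβ 40 μM, CSF1R 20 μM). Phosphopeptide was read by HTRF TR-FRET (665/620 nm), and IC50s came from 4-parameter fits.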

[2] = target: PDGFRα (Homo sapiens (Human), UniProt P16234); assay: Inhibition of PDGFRα kinase activity (HTRF KinEASE-TK); conditions: biochemical, HTRF KinEASE-TK
Outline: as §1

[3] = target: PDGFRβ (Homo sapiens (Human), UniProt P09619); assay: Inhibition of PDGFRβ kinase activity (HTRF KinEASE-TK); conditions: biochemical, HTRF KinEASE-TK
Outline: as §1

[4] = target: CSF1R (Homo sapiens (Human), UniProt P07333); assay: Inhibition of CSF1R kinase activity (HTRF KinEASE-TK); conditions: biochemical, HTRF KinEASE-TK
Outline: as §1

[5] = system: Phospho-KIT (Y703) in M07e cells; assay: Phospho-KIT (Y703) cellular assay in M07e cells; type: cell-based; conditions: M-07e, M07e cells
Outline: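 Serum-starved M07e cells preincubated 50 min at 37° C with 11-point half-log compound titration, then stimulated 10 min with SCF at 90.9 ng/mL final. Fixed, permeabilized cells stained for phospho-KIT Y703 and read by flow cytometry (live-gated geometric mean); IC50 by 4-parameter fit normalized to DMSO and positive control.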

[6] = Phospho-KIT (Y703), read-out: M07e Cell IC50
[7] = read-out: Phospho-KIT (Y703) cellular IC50

Sequence of c-Kit (P10721 26-976): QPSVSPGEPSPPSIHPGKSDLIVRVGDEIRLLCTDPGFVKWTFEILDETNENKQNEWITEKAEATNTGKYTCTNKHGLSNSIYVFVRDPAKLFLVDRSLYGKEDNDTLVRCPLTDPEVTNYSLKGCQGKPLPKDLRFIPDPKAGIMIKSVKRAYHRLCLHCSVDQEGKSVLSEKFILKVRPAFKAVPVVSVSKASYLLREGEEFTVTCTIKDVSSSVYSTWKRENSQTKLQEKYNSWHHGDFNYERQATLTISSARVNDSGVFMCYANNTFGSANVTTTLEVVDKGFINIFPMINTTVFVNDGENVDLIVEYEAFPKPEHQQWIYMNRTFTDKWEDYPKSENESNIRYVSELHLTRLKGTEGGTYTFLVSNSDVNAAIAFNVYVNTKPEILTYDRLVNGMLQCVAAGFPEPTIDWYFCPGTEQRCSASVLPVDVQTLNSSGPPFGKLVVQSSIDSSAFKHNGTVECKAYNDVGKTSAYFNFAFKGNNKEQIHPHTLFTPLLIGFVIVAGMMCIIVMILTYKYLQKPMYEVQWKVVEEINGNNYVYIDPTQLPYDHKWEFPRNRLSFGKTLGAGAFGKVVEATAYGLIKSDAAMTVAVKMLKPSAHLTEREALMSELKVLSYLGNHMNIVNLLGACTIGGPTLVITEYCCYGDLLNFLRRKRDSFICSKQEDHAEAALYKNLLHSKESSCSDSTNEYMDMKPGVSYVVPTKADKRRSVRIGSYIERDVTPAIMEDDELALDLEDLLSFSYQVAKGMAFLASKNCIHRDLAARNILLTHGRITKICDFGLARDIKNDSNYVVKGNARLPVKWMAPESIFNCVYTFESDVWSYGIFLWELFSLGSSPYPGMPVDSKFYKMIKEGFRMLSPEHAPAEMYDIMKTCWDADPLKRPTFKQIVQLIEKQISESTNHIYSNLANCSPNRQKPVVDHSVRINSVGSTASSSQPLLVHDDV
Sequence of PDGFRα (P16234 24-1089): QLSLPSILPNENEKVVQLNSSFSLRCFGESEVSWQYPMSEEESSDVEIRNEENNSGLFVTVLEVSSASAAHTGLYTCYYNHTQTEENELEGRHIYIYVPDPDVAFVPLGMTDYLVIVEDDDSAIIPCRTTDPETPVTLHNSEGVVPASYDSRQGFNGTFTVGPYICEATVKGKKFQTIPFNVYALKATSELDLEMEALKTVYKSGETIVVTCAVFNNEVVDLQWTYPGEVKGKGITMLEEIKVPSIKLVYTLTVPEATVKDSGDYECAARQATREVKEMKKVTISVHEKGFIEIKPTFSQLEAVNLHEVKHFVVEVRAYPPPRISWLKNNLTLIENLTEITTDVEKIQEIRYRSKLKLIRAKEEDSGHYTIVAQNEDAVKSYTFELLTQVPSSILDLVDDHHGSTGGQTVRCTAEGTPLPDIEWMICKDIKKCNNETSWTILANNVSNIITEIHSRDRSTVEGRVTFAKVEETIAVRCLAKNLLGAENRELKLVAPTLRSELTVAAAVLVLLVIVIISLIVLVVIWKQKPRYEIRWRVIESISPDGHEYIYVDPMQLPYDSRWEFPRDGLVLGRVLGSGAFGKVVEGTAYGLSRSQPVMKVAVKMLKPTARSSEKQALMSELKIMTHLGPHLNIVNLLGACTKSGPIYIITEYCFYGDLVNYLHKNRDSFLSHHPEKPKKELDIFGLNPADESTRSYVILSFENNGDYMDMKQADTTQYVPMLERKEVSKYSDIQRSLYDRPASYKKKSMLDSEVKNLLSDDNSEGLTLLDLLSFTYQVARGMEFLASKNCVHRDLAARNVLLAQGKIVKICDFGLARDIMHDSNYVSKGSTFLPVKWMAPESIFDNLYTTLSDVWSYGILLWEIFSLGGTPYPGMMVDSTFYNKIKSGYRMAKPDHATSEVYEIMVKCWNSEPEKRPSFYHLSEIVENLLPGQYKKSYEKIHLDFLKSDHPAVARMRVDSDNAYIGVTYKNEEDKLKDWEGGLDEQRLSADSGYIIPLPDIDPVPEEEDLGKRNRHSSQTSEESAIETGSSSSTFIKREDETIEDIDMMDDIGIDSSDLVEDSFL
Sequence of PDGFRβ (P09619 33-1106): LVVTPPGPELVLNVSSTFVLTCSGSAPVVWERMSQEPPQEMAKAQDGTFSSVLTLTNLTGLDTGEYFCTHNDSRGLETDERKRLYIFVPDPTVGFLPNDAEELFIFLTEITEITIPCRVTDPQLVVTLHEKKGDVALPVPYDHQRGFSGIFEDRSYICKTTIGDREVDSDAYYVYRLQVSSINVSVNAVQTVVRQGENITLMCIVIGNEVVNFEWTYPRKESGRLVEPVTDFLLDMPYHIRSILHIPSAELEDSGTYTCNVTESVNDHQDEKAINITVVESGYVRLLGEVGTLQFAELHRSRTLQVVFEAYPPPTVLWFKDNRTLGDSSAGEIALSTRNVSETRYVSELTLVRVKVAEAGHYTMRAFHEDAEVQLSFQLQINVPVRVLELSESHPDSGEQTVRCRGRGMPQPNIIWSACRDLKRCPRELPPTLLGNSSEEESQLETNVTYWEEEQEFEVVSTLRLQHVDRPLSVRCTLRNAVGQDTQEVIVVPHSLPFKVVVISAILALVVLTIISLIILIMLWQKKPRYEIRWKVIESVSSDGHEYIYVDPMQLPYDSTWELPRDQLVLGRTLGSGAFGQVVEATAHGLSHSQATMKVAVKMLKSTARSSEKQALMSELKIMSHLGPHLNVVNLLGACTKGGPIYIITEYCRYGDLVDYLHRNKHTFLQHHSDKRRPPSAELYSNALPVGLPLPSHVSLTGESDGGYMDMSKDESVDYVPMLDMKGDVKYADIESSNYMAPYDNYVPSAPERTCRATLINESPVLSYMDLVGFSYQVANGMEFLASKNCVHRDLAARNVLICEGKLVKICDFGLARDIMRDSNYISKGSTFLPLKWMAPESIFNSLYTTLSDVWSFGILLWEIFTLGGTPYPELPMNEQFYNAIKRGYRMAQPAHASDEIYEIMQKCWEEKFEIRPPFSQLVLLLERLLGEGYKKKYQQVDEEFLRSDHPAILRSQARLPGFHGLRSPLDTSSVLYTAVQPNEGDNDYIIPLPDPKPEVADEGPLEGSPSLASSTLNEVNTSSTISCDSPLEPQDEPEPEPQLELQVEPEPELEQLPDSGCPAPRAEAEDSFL
Sequence of CSF1R (P07333 20-972): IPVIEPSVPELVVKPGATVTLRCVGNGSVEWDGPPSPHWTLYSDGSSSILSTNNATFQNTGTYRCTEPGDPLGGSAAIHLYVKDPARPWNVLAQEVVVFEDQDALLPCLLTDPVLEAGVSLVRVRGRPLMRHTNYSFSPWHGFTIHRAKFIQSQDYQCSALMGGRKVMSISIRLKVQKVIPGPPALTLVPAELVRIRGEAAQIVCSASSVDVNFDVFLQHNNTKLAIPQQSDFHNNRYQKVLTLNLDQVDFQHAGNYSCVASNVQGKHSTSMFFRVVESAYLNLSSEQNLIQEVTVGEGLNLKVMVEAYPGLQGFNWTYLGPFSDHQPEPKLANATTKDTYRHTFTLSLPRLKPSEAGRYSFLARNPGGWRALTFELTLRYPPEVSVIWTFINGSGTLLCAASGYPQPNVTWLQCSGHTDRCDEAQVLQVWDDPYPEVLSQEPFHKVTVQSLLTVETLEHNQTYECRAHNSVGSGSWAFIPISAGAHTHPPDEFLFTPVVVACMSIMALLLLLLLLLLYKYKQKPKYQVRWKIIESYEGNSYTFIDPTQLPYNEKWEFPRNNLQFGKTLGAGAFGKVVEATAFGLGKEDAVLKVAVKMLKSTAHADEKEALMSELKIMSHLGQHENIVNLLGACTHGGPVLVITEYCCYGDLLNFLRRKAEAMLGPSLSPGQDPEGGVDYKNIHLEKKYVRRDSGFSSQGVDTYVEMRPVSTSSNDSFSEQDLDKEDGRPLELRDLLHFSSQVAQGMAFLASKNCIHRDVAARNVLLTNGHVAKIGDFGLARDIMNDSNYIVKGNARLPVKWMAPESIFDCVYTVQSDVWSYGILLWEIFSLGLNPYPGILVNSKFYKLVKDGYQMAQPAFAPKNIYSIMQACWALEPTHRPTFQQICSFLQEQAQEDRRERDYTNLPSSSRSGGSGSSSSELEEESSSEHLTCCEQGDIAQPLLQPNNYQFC

| SMILES | IC50 [1] [nM] | IC50 [2] [nM] | IC50 [3] [nM] | IC50 [4] [nM] | IC50 [5, 6] [nM] | IC50 [5, 7] [nM] |
| --- | --- | --- | --- | --- | --- | --- |
| Cc1ncc(C(=O)Nc2cc(C(=O)Nc3ccc(OC(F)(F)F)cn3)c(F)cc2C)s1 [Example 39, N-[4-fluoro-2-methyl-5-[[5-(trifluoromethoxy)pyridin-2-yl]carbamoyl]phenyl]-2-methyl-1,3-thiazole-5-carboxamide] | < 100 | > 1000 | > 1000 | > 1000 | < 100 | – |
| Cc1ncc(C(=O)Nc2cc(C(=O)Nc3cnc(N4CC[C@@H](O)C4)cn3)c(F)cc2C)s1 [Example 72, (R)—N-(4-fluoro-5-((5-(3-hydroxypyrrolidin-1-yl)pyrazin-2-yl)carbamoyl)-2-methylphenyl)-2-methylthiazole-5-carboxamide] | < 100 | > 1000 | > 1000 | > 1000 | < 100 | – |
| Cc1ncc(C(=O)Nc2cc(C(=O)Nc3cc(CC4CC4)ncn3)c(F)cc2C)s1 [Example 50, N-(5-((6-(cyclopropylmethyl)pyrimidin-4-yl)carbamoyl)-4-fluoro-2-methylphenyl)-2-methylthiazole-5-carboxamide] | < 100 | 100 to 1000 | 100 to 1000 | 100 to 1000 | < 100 | – |
| Cc1ncc(C(=O)Nc2cc(C(=O)Nc3cnc(OC4CC(F)(F)C4)cn3)c(F)cc2C)s1 [Example 32, N-[5-[[5-(3,3-difluorocyclobutyl)oxypyrazin-2-yl]carbamoyl]-4-fluoro-2-methylphenyl]-2-methyl-1,3-thiazole-5-carboxamide] | < 100 | > 1000 | > 1000 | > 1000 | < 100 | – |
| Cc1ncc(C(=O)Nc2cc(C(=O)NCc3ccc(F)c(F)c3)c(F)cc2C)s1 [Example 266, N-[5-[(3,4-difluorophenyl)methylcarbamoyl]-4-fluoro-2-methylphenyl]-2-methyl-1,3-thiazole-5-carboxamide] | < 100 | > 1000 | > 1000 | > 1000 | – | < 100 |
| Cc1ncc(C(=O)Nc2cc(C(=O)NCc3ccc(C(F)(F)F)cc3)c(F)cc2C)s1 [Example 268, N-[4-fluoro-2-methyl-5-[[4-(trifluoromethyl)phenyl]methylcarbamoyl]phenyl]-2-methyl-1,3-thiazole-5-carboxamide] | < 100 | > 1000 | > 1000 | > 1000 | – | < 100 |
| Cc1ncc(C(=O)Nc2cc(C(=O)Nc3ccnc(C(F)(F)F)c3)c(F)cc2C)s1 [Example 25, N-[4-Fluoro-2-methyl-5-[[2-(trifluoromethyl)pyridin-4-yl]carbamoyl]phenyl]-2-methyl-1,3-thiazole-5-carboxamide] | < 100 | > 1000 | 100 to 1000 | > 1000 | < 100 | – |
| Cc1ncc(C(=O)Nc2cc(C(=O)Nc3cnc(N4CCC[C@H]4C(F)(F)F)cn3)c(F)cc2C)s1 [Example 95, N-[4-fluoro-2-methyl-5-[[5-[(2S)-2-(trifluoromethyl)pyrrolidin-1-yl]pyrazin-2-yl]carbamoyl]phenyl]-2-methyl-1,3-thiazole-5-carboxamide] | < 100 | > 1000 | > 1000 | > 1000 | < 100 | – |
| Cc1cc(F)c(C(=O)Nc2ccc(COC(F)F)cn2)cc1NC(=O)c1cnc(N)s1 [Example 254, 2-Amino-N-[5-[[5-(difluoromethoxymethyl)pyridin-2-yl]carbamoyl]-4-fluoro-2-methylphenyl]-1,3-thiazole-5-carboxamide] | < 100 | > 1000 | < 100 | 100 to 1000 | < 100 | – |
| Cc1ncc(C(=O)Nc2cc(C(=O)Nc3cccc(CC(F)(F)F)n3)c(F)cc2C)s1 [Example 52, N-[4-fluoro-2-methyl-5-[[6-(2,2,2-trifluoroethyl)pyridin-2-yl]carbamoyl]phenyl]-2-methyl-1,3-thiazole-5-carboxamide] | < 100 | > 1000 | > 1000 | > 1000 | < 100 | – |
| Cc1ncc(C(=O)Nc2cc(C(=O)NCc3ccc(OC(F)(F)F)cc3)c(F)cc2C)s1 [Example 267, N-[4-fluoro-2-methyl-5-[[4-(trifluoromethoxy)phenyl]methylcarbamoyl]phenyl]-2-methyl-1,3-thiazole-5-carboxamide] | 100 to 1000 | > 1000 | > 1000 | > 1000 | – | < 100 |
| Cc1ncc(C(=O)Nc2cc(C(=O)Nc3cnc(OC[C@@H]4CC4(F)F)cn3)c(F)cc2C)s1 [Example 58, N-[5-[[5-[[(1S)-2,2-difluorocyclopropyl]methoxy]pyrazin-2-yl]carbamoyl]-4-fluoro-2-methylphenyl]-2-methyl-1,3-thiazole-5-carboxamide] | < 100 | > 1000 | > 1000 | > 1000 | < 100 | – |
| Cc1ncc(C(=O)Nc2cc(C(=O)Nc3ccnc(CC4CC4)n3)c(F)cc2C)s1 [Example 100, N-[5-[[2-(cyclopropylmethyl)pyrimidin-4-yl]carbamoyl]-4-fluoro-2-methylphenyl]-2-methyl-1,3-thiazole-5-carboxamide] | 100 to 1000 | > 1000 | > 1000 | > 1000 | 100 to 1000 | – |
| Cc1ncc(C(=O)Nc2cc(C(=O)Nc3cnc(N4CCC[C@H]4C)cn3)c(F)cc2C)s1 [Example 84, N-(5-{N-5-[(R)-2-methyl-1-pyrrolidinyl]-2-pyrazinylcarbamoyl}-4-fluoro-2-tolyl)-2-methyl-1,3-thiazole-5-carboxamide] | < 100 | > 1000 | > 1000 | > 1000 | < 100 | – |
| Cc1ncc(C(=O)Nc2cc(C(=O)Nc3cnc(N4CC(O)C4)cn3)c(F)cc2C)s1 [Example 71, N-(4-fluoro-5-((5-(3-hydroxyazetidin-1-yl)pyrazin-2-yl)carbamoyl)-2-methylphenyl)-2-methylthiazole-5-carboxamide] | < 100 | > 1000 | > 1000 | > 1000 | < 100 | – |
| Cc1ncc(C(=O)Nc2cc(C(=O)NCc3ccc(F)cc3)c(F)cc2C)s1 [Example 262, N-[4-fluoro-5-[(4-fluorophenyl)methylcarbamoyl]-2-methylphenyl]-2-methyl-1,3-thiazole-5-carboxamide] | < 100 | > 1000 | > 1000 | > 1000 | – | < 100 |
